According to US8541670B2, “Compositions and methods for inhibiting tumor cell growth” (priority 2007, dated 2013):
Where no end group is shown, it is not given here.

Assays:
PKAc = target: T1, PKAc (Homo sapiens, UniProt P17612); test: Independent kinase assays on catalytic activity of PKAc; type: biochemical
T1 construct: purchased Upstate Biotechnology
Excerpt: Of particular interest with regard to inhibitory activity toward AKT was peptide […](SEQ ID NO:60) which flanked the Thr-197 phosphorylation site of PKAc. […] Furthermore, the inhibitory effect of ZaTa peptide was compared with an adjacent peptide ([…] SEQ ID NO:59), a peptide that overlaps with the 11 N-terminal amino acid residues of the ZaTa peptide and carries the Thr-197 phosphorylation site. In this assay, the level of incorporation of −^32 P into Ser-21 GSK-3[…] substrate peptide was used as the measure of AKT1 in vitro catalytic activity.
(§1) For non-radioactive kinase assays, typically 25 ng of active AKT1 or PKAc (Upstate Biotechnology) was used in a kinase assay reaction buffer (20 mM MOPS, pH 7.2, 25 mM […]-glycerophosphate, 5 mM EGTA, 1 mM Na3VO4, 1 mM dithiothreitol, 75 mM MgCl2, and 0.5 mM ATP) in the presence of either 1 μL of Ser-9 GSK-3 GST fusion protein (Cell Signaling), or recombinant DARPP-32 (10 μg). […] A 5 μL aliquot of the reaction was transferred to phosphocellulose paper, washed for 30 minutes with dH2O, and CPM of samples read in scintillation counter.

AKT = test: Western blot of AKT substrate phosphorylation in N2a cells; type: cell-based; conditions: different doses
Experimental: AKT affects a network that positively regulates G1/S cell cycle progression through several mechanisms that involve the expression and subcellular localization of the CDK inhibitor p27^Kip1 (Blain and Massague (2002) Nat. Med. 8:1076-1078; Liang, et al. (2002) supra; Shin, et al. (2002) supra; Viglietto, et al. (2002) supra). Based on these studies, the effect of ZaTa peptide on cell proliferation was assessed. […] Capturing live images of cultured N2a cells in the presence of different concentrations of the ZaTa peptide confirmed an obvious reduction in the number of dividing cells.
N2a cells were cultured in Dulbecco's Modified Eagle's Medium (DMEM) and OPTI-MEM® media (50% of each; GIBCO-BRL, Gaithersberg, Md.) supplemented with 5% fetal bovine serum (FBS; SIGMA, St. Louis, Mo.), penicillin-streptomycin and L-Glutamine (GIBCO-BRL). […] Protein concentration was measured using a commercially available protein assay (BIO-RAD, […].) protein assay and spectrometry at 595 Å. […] The membrane was probed with primary and secondary antibodies and signals were detected by chemiluminescence followed by autoradiography.

AKT1 = target: T2, AKT1 (Homo sapiens, UniProt P31749); test: AKT kinase assay with Ser-9 GSK-3 GST fusion protein substrate (western blot, phospho-specific antibody); type: biochemical; conditions: wild-type active AKT
T2 construct: purchased Upstate Biotechnology
T2 sequence (P31749 whole entry, the tested form may be a part): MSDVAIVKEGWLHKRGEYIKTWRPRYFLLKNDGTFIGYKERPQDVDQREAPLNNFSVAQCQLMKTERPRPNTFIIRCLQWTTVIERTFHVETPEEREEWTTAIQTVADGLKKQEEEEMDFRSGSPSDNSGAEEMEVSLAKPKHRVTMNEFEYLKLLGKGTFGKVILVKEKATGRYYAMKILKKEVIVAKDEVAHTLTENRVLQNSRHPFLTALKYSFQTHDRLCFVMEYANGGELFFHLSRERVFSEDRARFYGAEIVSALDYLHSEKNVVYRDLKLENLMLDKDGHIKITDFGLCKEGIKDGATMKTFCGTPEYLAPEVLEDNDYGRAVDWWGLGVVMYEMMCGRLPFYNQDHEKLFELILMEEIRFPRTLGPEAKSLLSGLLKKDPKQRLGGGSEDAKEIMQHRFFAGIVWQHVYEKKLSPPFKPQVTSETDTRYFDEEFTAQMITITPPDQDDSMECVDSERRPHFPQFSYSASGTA
Experimental: Since the observed effect of H-89 and forskolin on AKT activity in cultured cells could be interpreted as the result of the regulatory interference of other signaling pathways, in vitro analysis was carried using purified, active forms of AKT and PKAc to examine the direct result of this interaction on the kinase catalytic activity. […] This decrease in the catalytic activity of AKT by PKAc was inhibited when the PKA inhibitor was added to the reaction mixture. […] The decrease in the catalytic activity of AKT by PKAc was also observed with two mutants and active forms of AKT1, one with a deletion in the PH domain and the other one with a Ser473Asp mutation. As with wild-type AKT, the inhibitory effect of PKAc on the mutants was reversed in the presence of the PKA inhibitor peptide. […]
as §1

AKT2 = AKT2 (Homo sapiens, UniProt P31751); test: In vitro kinase assay AKT2; type: biochemical; conditions: ten times higher concentration than 0.1 μM
Sequence of AKT2 (P31751 whole entry, species assumed): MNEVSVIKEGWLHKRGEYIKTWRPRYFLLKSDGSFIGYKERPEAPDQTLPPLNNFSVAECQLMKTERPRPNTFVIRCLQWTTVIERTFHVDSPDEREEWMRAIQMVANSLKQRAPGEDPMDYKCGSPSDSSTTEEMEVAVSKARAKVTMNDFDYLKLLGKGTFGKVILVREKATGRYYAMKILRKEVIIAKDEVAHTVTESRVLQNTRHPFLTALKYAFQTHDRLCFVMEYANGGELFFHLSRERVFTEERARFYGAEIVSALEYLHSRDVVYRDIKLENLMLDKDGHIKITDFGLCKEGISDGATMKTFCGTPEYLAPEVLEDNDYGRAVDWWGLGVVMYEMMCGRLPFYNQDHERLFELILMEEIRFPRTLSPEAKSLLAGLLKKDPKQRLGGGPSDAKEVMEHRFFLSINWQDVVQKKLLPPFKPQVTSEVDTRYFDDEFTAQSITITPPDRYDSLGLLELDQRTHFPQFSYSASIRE
Experimental: As a specific substrate, the phosphorylation level of GSK-3[…] at Ser-9 was also evaluated. […] The decrease was specific to the AKT phosphorylation site on GSK-3[…] at Ser-9, since a change in the phosphorylation level of GSK-3[…] at Tyr-216 or GSK-3[…] at Tyr-279 was not observed. Moreover, the in vivo reduction of the phosphorylation of AKT substrates was more obvious at the injection site, since a significant change in the phosphorylation of AKT substrates in the frontal cortex or cerebellum between the two hemispheres was not observed. […] To test the specificity/selectivity of ZaTa as the inhibitor of AKT1 versus the other major kinases, a series of in vitro kinase assays was performed at IC50 for AKT1 and at ten times higher concentrations. A panel of the following 32 kinases was first tested in vitro using the active form of each kinase and a specific substrate: AKT2, AKT3, PKA, PKC[…], PKC, PI3K[…], PI3K[…], PI3K, SGK, PAK2, PAK3, SAPK2/p38, Abl, CaMKII, CDK1/cyclinB, CDK5/p35, CK1, CK2, CSK, GSK3[…], GSK3[…], JNK1[…]1, MAPK1, p70S6K, PDGFR[…], PDGFR[…], PDK1, PKG1[…], TrkB, JAK2, JAK3, and Syk. […] However, at ten times higher concentration, ZaTa inhibited AKT2 (63%), PI3K[…] (72%), p70S6K (64%), SGK (73%), PAK3 (83%), JAK3 (79%), TrkB (84%), and Abl (42%). […]

## AKRVKGRTWTLCGTPEY [ZaTa]
PKAc
  inhibitory effect on catalytic activity of PKAc: did not exhibit any inhibitory effect
AKT
  phosphorylation level of AKT substrates in N2a cells: concomitant decrease
AKT1
  AKT catalytic activity, phosphorylation level of Ser-9 GSK-3 GST substrate: significantly reduced
AKT2
  inhibition of AKT2: 63%
